The conditions of series [1]: Adiabatic calorimetry.
The nature of series [2]: Molar enthalpy of transition or fusion. As to conditions: Adiabatic calorimetry.

± gives the expanded uncertainty stated by the source.

In the case of `CCCCn1cc[n+](C)c1.[Br-]` [1-butyl-3-methylimidazolium bromide], the Triple point temperature in series [1] (Crystal) is on record as 351.35 ± 0.2 K. In addition, in series [2] (Crystal), the “Molar enthalpy of transition or fusion” value amounted to 5.468 ± 0.0239 kcal/mol.

Turning to `CCn1cc[n+](C)c1.[Br-]` [1-ethyl-3-methylimidazolium bromide], the Triple point temperature in series [1] (Crystal) is 349.91 ± 0.2 K. Further, in series [2] (Crystal), the “Molar enthalpy of transition or fusion” value worked out at 4.36 ± 0.0574 kcal/mol.

As to `CCC[n+]1ccn(C)c1.[Br-]` [1-methyl-3-propylimidazolium bromide], the Triple point temperature came out at 314.7 ± 0.5 K in series [1] (Crystal) and 310.4 ± 0.5 K in series [1] (Metastable crystal). Also, in series [1] (Glass), the Glass transition temperature is -64 ± 3 °C. In addition, the “Molar enthalpy of transition or fusion” value in series [2] (Crystal) worked out at 3.23 ± 0.0478 kcal/mol; in series [2] (Metastable crystal), 5.11 ± 0.0717 kcal/mol.

The record behind these values is the NIST ThermoML archive (doi:10.1016/j.jct.2006.05.008).
